Test results reported in patent US20110189241A1, “Process For Controlling The Particle Size of A [3-(Trifluoromethyl)Phenyl]-1-Aminopropane Derivative” (Medichem, S.A., priority 2008, published 2011).

Test: Particle size distribution (Malvern Mastersizer S, laser diffraction, by volume)
Type: physicochemical
Details: for particle size D[v, 0.5]: crystals as isolated after crystallization from isobutyl acetate and drying, mean of nine readings, hydrochloride
Description: The particle size for cinacalcet hydrochloride was measured using a Malvern Mastersizer S particle size analyzer with an MS1 Small Volume Sample Dispersion Unit stirred cell. A 300RF mm lens and a beam length of 2.4 mm were used. Samples for analysis were prepared by dispersing a weighed amount of cinacalcet hydrochloride (approximately 60 mg) in 20 mL of sample dispersant, previously prepared by dilution of 1.5 g of Soybean Lecithin to 200 mL with Isopar G. The suspension was delivered drop-wise to the background-corrected measuring cell filled with dispersant (Isopar G) until the obscuration reached the desired level. Nine repeated readings of the volume distributions were taken. For characterization, the values of D50 and D90 (by volume) were selected and reported as the mean of the nine values measured.

Row | particle size D[v, 0.9] (crystals as isolated after crystallization (Example 4)) [µm] | particle size D[v, 0.9] (crystals as isolated after crystallization (Example 9)) [µm] | particle size D[v, 0.5] [μm] | SMILES
1 | 404 | – | – | C[C@@H](NCCCc1cccc(C(F)(F)F)c1)c1cccc2ccccc12.Cl [Example 4, cinacalcet hydrochloride]
2 | – | 518 | 74.0 | C[C@@H](NCCCc1cccc(C(F)(F)F)c1)c1cccc2ccccc12.Cl [Example 9, cinacalcet hydrochloride]
3 | – | – | 65.0 | C[C@@H](NCCCc1cccc(C(F)(F)F)c1)c1cccc2ccccc12.Cl [Example 6, cinacalcet hydrochloride]
